85 compounds from PubChem BioAssay AID463206 (Broad Institute, 2010) can be followed below.

Active and inactive are the calls of the source.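 The calls were made as follows: active = caspase luminescence falls with dose and the half-maximal concentration AC50 from the fitted curve is at or below a set limit; inconclusive = flat fit at 30 to 70% signal loss, or invalid fit; inactive = AC50 above the limit, or signal rises instead.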 Bounds are passed on as bounds.

The subject of the assay is INS-1E cytokine-induced caspase-3/7, Caspase-Glo luminescence, 48 h. Briefly: suppression of cytokine-driven beta-cell apoptosis – INS-1E rat cells, luminescence, orthogonal assay for beta-cell apoptosis protection project, dose response (AID 463206).

The AC50 is the midpoint of the concentration-response curve, whichever way the signal moves.

On to `O=C1c2ccccc2C2=Nc3ccccc3SC(c3ccc(Cl)cc3)C12` (stereo not given), for which the AC50 is > 26 µM (inactive).
Turning to `CCCCC(=O)NC(c1ccccc1Cl)c1ccc2cccnc2c1O` (stereo not given), the AC50 was > 26 µM (inactive).
Take `Cc1ccc(-n2c(Cl)c(Cl)nc(Cl)c2=O)cc1`: the AC50 is > 26 µM (inactive).
Regarding `Cc1cc(N/N=C/c2c(O)ccc3ccccc23)nc(-c2ccccc2O)n1`, the AC50 was > 26 µM (inactive).
Turning to `Cc1cccc(NC(=O)Cn2c(/C=C/c3ccccc3)nc3ccccc32)c1`, the AC50 is > 26 µM (inactive).
In the case of `Nc1ccc(Nc2ccc([N+](=O)[O-])cc2[N+](=O)[O-])cc1`, the AC50 is > 26 µM (inactive).
For the compound `Cc1cc2nc(-c3ccc[nH]c3=O)[nH]c2cc1C`, the AC50 is > 26 µM (inactive).
Under `S=C(Nc1ccc(Nc2ccccc2)cc1)Nc1ccccn1` stands > 26 µM (inactive); under `O=C(Nc1cccc([N+](=O)[O-])c1)c1cc2ccccc2cc1O`, > 26 µM (inactive); under `Cc1cc2cc(CN3C(=O)c4ccccc4C3=O)ccc2n1C`, > 26 µM (inactive).
Then `O=C(COc1ccc(Br)cc1)N1CCN(Cc2c[nH]c3ccccc23)CC1`, with > 26 µM (inactive); and `COc1ccc(-n2cc(-c3ccc(C)cc3)[n+]3c2SCC3)cc1`, with > 26 µM (inactive).
Regarding `O=C(Nc1cccc(Cl)c1)Nc1nnc(-c2ccncc2)s1`, the AC50 is > 26 µM (inactive).
`Cc1nn(C)c(C)c1CN(C)S(=O)(=O)c1ccc2ccccc2c1`: the AC50 is > 26 µM (inactive).
As for `O=[N+]([O-])/C=C/c1ccc2c(ccn2Cc2ccccc2)c1`, the AC50 is > 26 µM (inactive).
With `CCOC(=O)COc1ccc2ccccc2c1/C=C/[N+](=O)[O-]`, the AC50 was > 26 µM (inactive).
`O=C(OCCOc1cccc(Cl)c1)c1cc(S(=O)(=O)N2CCCCC2)ccc1N1CCOCC1`: the AC50 is > 26 µM (inactive).
On to `COc1ccc(C(=O)/C(=C\c2ccco2)N2C=CC=CC2=C(C#N)C#N)cc1`, for which the AC50 is > 26 µM (inactive).
Consider `Cc1[nH]nc2nc(SCC(=O)NCCC3=CCCCC3)n(-c3ccc(Br)cc3)c(=N)c12`, for which the AC50 is > 26 µM (inactive).
Then `COc1ccccc1-n1c(-c2ccccc2)c[n+]2c1CCc1ccccc1-2`, with > 26 µM (inactive); and `Cc1ccc(-c2nc(NC(=O)c3nn(C)cc3[N+](=O)[O-])sc2C)cc1C`, with > 26 µM (inactive).
`CC1=C(CO)C(=O)OC([C@@H](C)C2CC[C@H]3C4C[C@H]5O[C@]56[C@@H](O)C=CC(=O)[C@]6(C)C4CC[C@]23C)C1` (stereo not given in full): the AC50 was > 26 µM (inactive).
With `CC1(C)CC(=O)C2=C(C1)OC1=C(C(=O)CC(C)(C)C1)C2c1ccc(O)cc1O`, the AC50 is > 26 µM (inactive).
`Cc1cc(C)cc(OCC(O)CN2CCC(CN3C(=O)c4cccc5cccc(c45)C3=O)CC2)c1` (stereo not given): the AC50 is > 26 µM (inactive).
Under `CNc1nc(N/N=C/c2cc3c(cc2[N+](=O)[O-])OCO3)nc(Nc2ccccc2)n1` stands > 26 µM (inactive); under `Cc1nc2ccccn2c1C(=O)/C=C/c1cccc([N+](=O)[O-])c1`, > 26 µM (inactive); under `N#C/C(=N\Nc1ccc(Cl)cc1)C(=O)c1ccccc1`, > 26 µM (inactive).
For `CC(C)c1nc(-c2ccccc2)c(-c2ccccc2)[nH]1`, the AC50 is > 26 µM (inactive).
In the case of `N=c1c2c(n(Cc3ccc(Cl)cc3Cl)c3c1CCC3)CCCC2`, the AC50 was > 26 µM (inactive).
For the compound `CCOc1ccc(-n2c(-c3ccc(Br)cc3)c[n+]3c2CCCCC3)cc1`, the AC50 is > 26 µM (inactive).
`C=C(C=O)C[C@@H]1C[C@H](O)C2OC3C[C@]4(C)OC5/C=C\CC6OC7C(CC=CCC6OC5CCCC4OC3CC2O1)OC1CC2OC3CC(=O)OC3C[C@@H](C)C[C@@]2(C)OC1C[C@@H]7C` (stereo not given in full): the AC50 is > 26 µM (inactive).
With `CC(CNC(=O)c1ccc(OC2CCN(Cc3ccccn3)CC2)cc1)Oc1cccnc1` (stereo not given), the AC50 is > 26 µM (inactive).
Under `COc1ccc(S(=O)(=O)Nc2ccc(O)c3ccccc23)cc1` stands > 26 µM (inactive); under `COc1ccc2nc(C)cc(N/N=C/c3ccccc3)c2c1`, 10.1 µM; under `COc1ccc(CNCCC(c2ccc(OC(C)C)cc2)C(C)C)cc1OC` (stereo not given), > 26 µM (inactive).
Turning to `Cc1cc(-c2ccccc2)n(-c2cc(N/N=C/c3ccccc3O)ncn2)n1`, the AC50 was > 26 µM (inactive).
Consider `CC(C)OCCCNc1ncnc2c1[nH]c1ccccc12`, for which the AC50 is > 26 µM (inactive).
Under `c1ccc(N2CCN(CC3CCCCC3)CC2)cc1` stands > 26 µM (inactive); under `Cc1ccc2ccc3cccnc3c2n1`, > 26 µM (inactive).
For `Cc1cc(-c2n[nH]c(=S)n2/N=C/C(Br)=C/c2ccccc2)n[nH]1`, the half-maximal activity concentration (AC50) was 12.4 µM.
On to `COc1ccc(-n2c(-c3ccc(Cl)cc3)c[n+]3c2CCc2ccccc2-3)cc1`, for which the AC50 was > 26 µM (inactive).
In the case of `Nc1ccccc1N=Cc1c(O)n(CCC2=CCCCC2)c(=O)[nH]c1=O`, the AC50 is > 26 µM (inactive).
Then `COc1ccccc1C(NC(C)=O)c1cc(Cl)c2cccnc2c1O` (stereo not given), with > 26 µM (inactive).
Regarding `C/C(=N\NC(=O)c1nnn(-c2nonc2N)c1CN(C)c1ccccc1)c1ccccc1O`, the AC50 was > 26 µM (inactive).
For the compound `Cc1ccc(C2CC(c3ccc(C)cc3)n3nc(N)nc3N2)cc1` (stereo not given), the AC50 is > 26 µM (inactive).
With `CC1CC(=O)c2c(cc3c(-c4c(O)cc(O)c5c(O)c6c(cc45)OC(C)CC6=O)c(O)cc(O)c3c2O)O1` (stereo not given), the AC50 was > 26 µM (inactive).
Then `COc1cc(NC(C)CCCN)c2ncccc2c1` (stereo not given), with > 26 µM (inactive); and `C=CCc1cccc(/C=N/NC(=O)c2ccccc2OC)c1O`, with > 26 µM (inactive).
As to `c1ccc(CNc2c3ccccc3nc3ccccc23)cc1`, the AC50 was 6.14 µM.
As to `CC(=O)Nc1sc2c(c1-c1nc3ccccc3s1)CCN(C(C)C)C2`, the half-maximal activity concentration (AC50) is 3.1 µM.
Regarding `Cc1ccc(-c2c(C#N)c(N)n3c(nc4ccccc43)c2C#N)cc1`, the AC50 was > 26 µM (inactive).
On to `CCc1c(C)sc2nc(C(C)C)nc(SCC(=O)N3CCc4ccccc4C3)c12`, for which the AC50 was > 26 µM (inactive).
Under `COc1cccc(-c2nc(-c3ccc(NC(=O)c4cccnc4)cc3)no2)c1` stands > 26 µM (inactive); under `COc1cc(C)c(C(=O)CC(=O)c2c(C)cc(OC)cc2C)c(C)c1`, > 26 µM (inactive).
Under `O=C(c1cccnc1)N(c1cc2sc(=O)oc2c2ccccc12)S(=O)(=O)c1ccccc1` stands > 26 µM (inactive); under `COc1ccccc1N1C(C)=CC(=C(C#N)c2nc3ccccc3s2)C=C1C`, > 26 µM (inactive).
Under `COC(=O)c1cc(O)cc(OC)c1Oc1cc(C)cc(O)c1C(=O)O` stands 3.06 µM; under `CCCCCCC[n+]1ccc(-c2cc[n+](CCCCCCC)cc2)cc1`, > 26 µM (inactive); under `CCOc1ccc2nc(NC(=O)c3cccc(-c4cc5ccccc5oc4=O)c3)sc2c1`, > 26 µM (inactive).
Consider `Cc1ccc(OCc2cc(C(=O)N(C)Cc3cc(C4CC4)n[nH]3)no2)cc1C`, for which the AC50 was > 26 µM (inactive).
On to `COc1ccc(NS(=O)(=O)c2ccc(N3CCCCC3)c(N)c2)cc1`, for which the AC50 was > 26 µM (inactive).
Then `Cn1c2c(c(=O)n(C)c1=O)C(C(F)(F)F)(C(F)(F)F)N=C(c1ccc(Cl)cc1)N2`, with > 26 µM (inactive).
In the case of `S=C(NCc1ccc(Cl)cc1)NC12CC3CC(CC(C3)C1)C2`, the AC50 is > 26 µM (inactive).
Turning to `O=S(=O)(Nc1nc2ccccc2s1)c1ccc(Cl)s1`, the AC50 was > 26 µM (inactive).
Then `C/C(=N\NC(=O)C(C)n1nc(C)c([N+](=O)[O-])c1C)c1ccccc1O` (stereo not given), with > 26 µM (inactive).
Take `Cc1cc(C)c2c(C)[nH]nc2n1`: the AC50 was > 26 µM (inactive).
Then `Cn1c(SCC(=O)N/N=C/c2ccc([N+](=O)[O-])s2)nnc1-c1ccccc1`, with > 26 µM (inactive).
Regarding `N#Cc1c(Nc2ccccc2)sc(C(=O)c2ccc(F)cc2)c1N`, the AC50 is > 26 µM (inactive).
Consider `CCc1ccc(OC)c(S(=O)(=O)Nc2ccc(Cc3ccncc3)cc2)c1`, for which the AC50 is > 26 µM (inactive).
In the case of `O=[N+]([O-])c1ccc(N2CCN(C(=S)NCc3ccc(Cl)cc3)CC2)cc1`, the AC50 was > 26 µM (inactive).
`CCCOCc1ccc(O)c2ncccc12`: the AC50 is > 26 µM (inactive).
For the compound `O=C(CSc1nnc(Cn2nnc3ccccc32)o1)N(Cc1ccc(F)cc1)c1ccccc1`, the AC50 is > 26 µM (inactive).
Then `c1ccc(CCNc2ncnc3ccccc23)cc1`, with > 26 µM (inactive).
`O=S(=O)(c1ccc2nc(Nc3ccccc3)ccc2c1)N1CCCCC1`: the AC50 was > 26 µM (inactive).
For the compound `C[C@@H]1CN([C@H](C)CO)C(=O)c2cc(NC(=O)Nc3ccc(C(F)(F)F)cc3)ccc2O[C@H]1CN(C)S(=O)(=O)c1cccs1`, the AC50 was > 26 µM (inactive).
Under `CCN(CC(=O)Nc1ccc(NC(C)=O)cc1)C(=O)CCCOc1ccc(C(C)(C)C)cc1` stands > 26 µM (inactive).
For the compound `CC1Sc2ccc(S(=O)(=O)N3CCC(C(=O)Nc4ccc(Cl)cc4)CC3)cc2NC1=O` (stereo not given), the AC50 was > 26 µM (inactive).
With `CCc1ccc(CN(C)C(=O)c2cc(COc3cccc4cnccc34)on2)cc1`, the AC50 was > 26 µM (inactive).
With `CCCC1(c2ccccc2)NC(=O)N(CC(=O)Nc2cc(C)ccc2OC)C1=O` (stereo not given), the AC50 was > 26 µM (inactive).
Take `Cn1c(/C=C/c2ccc([N+](=O)[O-])o2)nc2ccccc2c1=O`: the AC50 is > 26 µM (inactive).
With `CCC(/C=C1\Sc2ccc(OC)cc2N1CC)=C\c1sc2ccc(OC)cc2[n+]1CCCS(=O)(=O)[O-]`, the AC50 was > 26 µM (inactive).
Under `Cc1ccc(C[n+]2cccc(-c3ccccc3)c2)c(C)c1` stands > 26 µM (inactive); under `N#CC(c1ccc(Cl)cc1)c1ccc2c(C(F)(F)F)cc(C(F)(F)F)nc2n1` (stereo not given), > 26 µM (inactive); under `N#Cc1ccc(-c2ccc(Cl)cc2)nc1SCC(=O)c1cccc(Cl)c1`, > 26 µM (inactive).
Take `CC(=O)C1=C(c2ccc(Br)cc2)C(=O)c2ccccc2C1=O`: the AC50 was > 26 µM (inactive).
